Earlier results on one molecule are cited in US20100166698A1, “NEW COMPOSITIONS AND METHODS FOR THE TREATMENT OF INFLAMMATION” (University of Virginia Patent Foundation, priority 2005, published 2010).

For one data set, the system named is TNF-a-stimulated PMN. Conditions: adenosine 10 μM.
The test system of data set [1] is TNF-α-stimulated PMN adhering to matrix proteins. Conditions: DeLa Harpe, J. Immunol. 143, 596 (1989).

With `Nc1ncnc2c1ncn2[C@@H]1O[C@H](CO)[C@@H](O)[C@H]1O` [adenosine], in the data set on TNF-a-stimulated PMN, the “effect on TNF-a-stimulated PMN adherence to matrix proteins” value is recorded as “failed to see much of an effect”. Besides, the “oxidative burst of TNF-α-stimulated PMN adhering to matrix proteins” value in data set [1] is on record as “dramatically decreases”.
